{"source": "ChEMBL document CHEMBL1134820", "about": "“Synthesis of antitumor dendritic imides” (Bioorg Med Chem Lett, 2001)", "key": {"HT-29": {"system": "HT-29", "assay": "Cytotoxic effect on human colon carcinoma HT-29 cell line", "format": "functional", "conditions": "read-out: ID50 (the source's name)"}, "[1]": {"biological_target": "Tyrosine-protein kinase Lck (Homo sapiens, UniProt P06239)", "sequence (P06239 whole entry, the tested form may be a part)": "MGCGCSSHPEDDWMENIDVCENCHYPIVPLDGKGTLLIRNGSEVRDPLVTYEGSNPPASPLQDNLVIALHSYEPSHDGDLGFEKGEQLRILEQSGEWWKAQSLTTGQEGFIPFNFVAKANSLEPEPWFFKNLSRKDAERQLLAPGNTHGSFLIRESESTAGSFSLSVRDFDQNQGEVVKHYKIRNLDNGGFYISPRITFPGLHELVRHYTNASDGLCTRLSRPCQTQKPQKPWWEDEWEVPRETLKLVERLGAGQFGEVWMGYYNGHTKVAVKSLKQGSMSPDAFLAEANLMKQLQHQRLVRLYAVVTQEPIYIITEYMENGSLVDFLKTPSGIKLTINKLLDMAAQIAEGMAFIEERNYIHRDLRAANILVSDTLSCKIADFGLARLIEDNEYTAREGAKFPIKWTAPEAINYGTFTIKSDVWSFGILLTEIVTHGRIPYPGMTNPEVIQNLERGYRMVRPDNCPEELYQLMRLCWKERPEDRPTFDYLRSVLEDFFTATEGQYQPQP", "assay": "Inhibition of lck catalytic domain expressed in baculovirus"}}, "note": "pIC50: −log10 of the molar value."}
{"molecule": "N#CCCN(CCC#N)CCCN(CCCN(CCC#N)CCC#N)CCCN(CCN)CCCN(CCCN(CCC#N)CCC#N)CCCN(CCC#N)CCC#N", "values": [{"measurement": "pIC50", "setting": "HT-29", "result": "< 4.00"}]}
{"molecule": "NCCCN(CCCN)CCCN(CCCN(CCCN)CCCN)CCCN(CCCN(CCCN(CCCN)CCCN)CCCN(CCCN)CCCN)CCN1C(=O)c2cccc3cccc(c23)C1=O", "values": [{"measurement": "pIC50", "setting": "HT-29", "result": 4.36}]}
{"molecule": "N#CCCN(CCC#N)CCCN(CCCN(CCC#N)CCC#N)CCCN(CCCN(CCCN(CCC#N)CCC#N)CCCN(CCC#N)CCC#N)CCN1C(=O)c2cccc3cccc(c23)C1=O", "values": [{"measurement": "pIC50", "setting": "HT-29", "result": "< 4.00"}, {"measurement": "pIC50", "setting": "[1]", "result": "< 4.30"}]}
{"molecule": "N#CCCN(CCC#N)CCCN(CCCN(CCC#N)CCC#N)CCCN(CCCN(CCCN(CCC#N)CCC#N)CCCN(CCC#N)CCC#N)CCN1C(=O)c2cccc3cc(N)cc(c23)C1=O", "values": [{"measurement": "pIC50", "setting": "HT-29", "result": "< 4.00"}]}
{"molecule": "N#CCCN(CCC#N)CCCN(CCCN(CCC#N)CCC#N)CCCN(CCCN(CCCN(CCC#N)CCC#N)CCCN(CCC#N)CCC#N)CCN1C(=O)c2cccc3cc([N+](=O)[O-])cc(c23)C1=O", "values": [{"measurement": "pIC50", "setting": "HT-29", "result": "< 4.00"}]}
{"molecule": "N#CCCN(CCC#N)CCCN(CCCN(CCC#N)CCC#N)CCCN(CCCN(CCCN(CCC#N)CCC#N)CCCN(CCC#N)CCC#N)CCN1C(=O)C(c2ccccc2)=C(c2ccccc2)C1=O", "values": [{"measurement": "pIC50", "setting": "HT-29", "result": 4.24}, {"measurement": "pIC50", "setting": "[1]", "result": "< 4.30"}]}
{"molecule": "NCCCN(CCCN)CCCN(CCCN(CCCN)CCCN)CCCN(CCCN(CCCN(CCCN)CCCN)CCCN(CCCN)CCCN)CCN1C(=O)C(c2ccccc2)=C(c2ccccc2)C1=O", "values": [{"measurement": "pIC50", "setting": "HT-29", "result": 4.00}]}
{"molecule": "CN(C)CCN1C(=O)c2cccc3cc(N)cc(c23)C1=O", "note": "[AMONAFIDE]", "values": [{"measurement": "pIC50", "setting": "HT-29", "result": 4.42}]}
{"molecule": "O=C1c2cccc3cccc(c23)C(=O)N1CCNCCCNCCN1C(=O)c2cccc3cccc(c23)C1=O", "note": "[ELINAFIDE]", "values": [{"measurement": "pIC50", "setting": "HT-29", "result": 7.85}]}
